Patent US20100069393A1, “METHOD OF TREATMENT AND AGENTS USEFUL FOR SAME” (PRANA BIOTECHNOLOGY LIMITED, priority 2006, published 2010)

What was measured:
[1] = Cytotoxicity: viability of M17 cells; details: human, M17 neuroblastoma cells, Cytotoxicity (% viable at 1 and 10 uM); for viability at 1 uM: test compound 1 uM; for viability at 10 uM: test compound 10 uM
[2] = In vivo toxicity, visual observations; details: number of days
[3] = Mice plasma concentration; format: in vivo; details: for Mice plasma concentration: presence in plasma at one or two time points (between 30 min and 4 h); for Mice plasma concentration (single dose): one or two time points (between 30 min and 4 h)
[4] = Neurotoxicity assay: MTS viability of primary cortical neuronal cultures; format: cell-based, mouse; details: BL6Jx129sv, mouse, primary cortical neuronal cultures, Neuronal cells, read-out: Cytotoxicity (% viable at 1 and 10 uM); for viability at 4 days, 1 uM: test compound 1 uM; for viability at 4 days, 10 uM: test compound 10 uM
Method: Media was then replaced with Neurobasal media (Invitrogen Life Technologies) and B27 supplements (Invitrogen Life Technologies). Cultures were maintained at 37° C. in 5% CO2. Prior to experimentation, the culture medium was replaced with Neurobasal media and B27 minus antioxidants (Invitrogen Life Technologies).
Cell viability is determined using the MTS assay. Culture medium is replaced with fresh neurobasal medium plus B27 supplements minus antioxidants. 1/10th volume MTS solution (Cell Titre 96 Aqueous One, Promega Corporation) and incubated at 37° C., 2 hrs. 200 microlitre aliquots are measured with a spectrophotometer at 560 nm.
Neuronal cortical cells were cultured for five days as per Assay 2 in NB media and B27 supplement.
On day six the test compounds were added to the neuronal cell cultures in NB media and B27 supplement minus antioxidants.
Test compounds were dissolved in 100% DMSO to a concentration of 2.5 mM (10 mM if excess compound was weighed out per vial—then diluted to 2.5 mM). […] Test compounds were not added directly to cells, instead they were added to a 48 well ‘Drug Plate’ as comprised below:
The Drug Plate was incubated at 37° C. for 15 mins. 200 μl of each well was added in triplicate to the corresponding cell plate. The cell plate was incubated at 37 C, for 4 days.
On completion of the assay, 1/10 volume MTS was added per well of plate (i.e. 25 μl/250 μl). The plates were incubated at 37 C for 2 hrs, and then absorbance was read at 560 nm.

For `CN(C)Cc1ccc2c(Cl)cc(I)c(O)c2n1`, the viability at 1 uM [1] was 97.9%, the viability at 10 uM [1] was 24.4% and the “Toxicity at 30 mg/kg” value [2] was 1 day, 3/4 deaths.

In the case of `Br.Cc1cccnc1Cn1cnc2c(O)c(Cl)cc(Cl)c2c1=O`, the Mice plasma concentration [3] is reported as “Up to 439 ng/mL”, the “Toxicity at 30 mg/kg” value [2] is reported as 10 days, 3/4 mild signs and the viability at 4 days, 1 uM [4] is reported as 99%. For the same molecule, the viability at 4 days, 10 uM [4] was 88%.

In the case of `O=C(NCCc1c[nH]cn1)c1ccc2c(Cl)cc(Cl)c(O)c2n1`, the Mice plasma concentration [3] is reported as “Up to 2694 ng/mL”, the viability at 4 days, 1 uM [4] is reported as 91% and the viability at 4 days, 10 uM [4] is reported as 84%.

With `CCCn1cnc2c(O)c(I)cc(Cl)c2c1=O` the viability at 1 uM [1] was 120%, the viability at 10 uM [1] was 100% and the Mice plasma concentration [3] was “Up to 4060 ng/mL”.

With `Oc1c(C2CC2)ncc2cccnc12` the “Mice plasma concentration (single dose)” value [3] was “Up to 350 ng/mL (single dose)”, the “Toxicity at 30 mg/kg” value [2] was 6 days, none and the viability at 4 days, 1 uM [4] was 100%. It also gave a viability at 4 days, 10 uM [4] of 98%.

With `O=c1[nH]cnc2c(O)c(Cl)cc(Cl)c12` the “Mice plasma concentration (single dose)” value [3] was “Below 100 ng/mL (single dose)”, the “Toxicity at 30 mg/kg” value [2] was 3 days, none and the viability at 4 days, 1 uM [4] was 100%. For the same molecule, the viability at 4 days, 10 uM [4] was 93%.

For `CCn1nccc1-n1cnc2c(O)c(Cl)cc(Cl)c2c1=O`, the Mice plasma concentration [3] was “Up to 3896 ng/mL”, the “Toxicity at 30 mg/kg” value [2] was 10 days, none and the viability at 4 days, 1 uM [4] was 102%. For the same molecule, the viability at 4 days, 10 uM [4] was 94%.

With `O=c1c2ccc(I)c(O)c2ncn1-c1ccc(F)cc1F` the viability at 1 uM [1] was 90.3%, the viability at 10 uM [1] was 80.3% and the “Toxicity at 30 mg/kg” value [2] was 6 days, 2/4 deaths.

For `O=c1c2c(Cl)cc(Cl)c(O)c2ncn1CCc1ccccn1`, the Mice plasma concentration [3] was “Up to 59 ng/mL”, the “Toxicity at 30 mg/kg” value [2] was 10 days, none and the viability at 4 days, 1 uM [4] was 100%. For the same molecule, the viability at 4 days, 10 uM [4] was 92%.

For `Cc1ccc(-n2cnc3c(O)c(Cl)cc(Cl)c3c2=O)nc1`, the Mice plasma concentration [3] was “Up to 39 ng/mL”, the “Toxicity at 30 mg/kg” value [2] was 10 days, none and the viability at 4 days, 1 uM [4] was 96%. For the same molecule, the viability at 4 days, 10 uM [4] was 83%.

With `CCn1cnc2c(O)c(I)ccc2c1=O` the “Toxicity at 30 mg/kg” value [2] was 10 days, none.

In the case of `Br.O=c1c2c(Cl)cc(Cl)c(O)c2ncn1Cc1cccc(Cn2cnc3c(Cl)c(Cl)cc(Cl)c3c2=O)n1`, the viability at 1 uM [1] is reported as 94.9%, the viability at 10 uM [1] is reported as 26.8% and the “Toxicity at 30 mg/kg” value [2] is reported as 10 days, none. It also gave a viability at 4 days, 1 uM [4] of 89% and a viability at 4 days, 10 uM [4] of 67%.

`O=c1c(-c2ccc(Cl)cc2)cnc2c(O)cccn12` gave a viability at 1 uM [1] of 41.2%, a viability at 10 uM [1] of 25.8% and a viability at 4 days, 1 uM [4] of 97%. The viability at 4 days, 10 uM [4] was 42%.

In the case of `COc1ccc(-n2cnc3c(O)c(Cl)cc(Cl)c3c2=O)nc1`, the “Mice plasma concentration (single dose)” value [3] is reported as “Up to 80 ng/mL (single dose)”, the “Toxicity at 30 mg/kg” value [2] is reported as 10 days, none and the viability at 4 days, 1 uM [4] is reported as 122%. The viability at 4 days, 10 uM [4] was 93%.

With `CC(C)n1cnc2c(O)c(I)ccc2c1=O` the Mice plasma concentration [3] was “Up to 277 ng/ml ng/mL” and the “Toxicity at 30 mg/kg” value [2] was 10 days, 1/4 deaths.

In the case of `CCCCc1cnc2c(O)cccn2c1=O`, the viability at 1 uM [1] is reported as 73.6%, the viability at 10 uM [1] is reported as 37% and the “Toxicity at 30 mg/kg” value [2] is reported as 10 days, none.

With `CCCn1cnc2c(O)c(I)ccc2c1=O` the “Mice plasma concentration (single dose)” value [3] was “Up to 1096 ng/mL (single dose)” and the “Toxicity at 30 mg/kg” value [2] was 10 days, none.

With `O=C(O)Cn1cnc2c(O)c(Cl)cc(Cl)c2c1=O` the viability at 1 uM [1] was 105%, the viability at 10 uM [1] was 101% and the “Toxicity at 30 mg/kg” value [2] was 10 days, none.

In the case of `CN(C)Cc1cnc2c(Cl)cc(Cl)c(O)c2n1.Cl`, the Mice plasma concentration [3] is reported as “Up to 1000 ng/mL”, the viability at 4 days, 1 uM [4] is reported as 106% and the viability at 4 days, 10 uM [4] is reported as 93%.

With `O=C(NCc1ccc(F)cc1)c1cnc2c(O)c(I)ccn2c1=O` the viability at 1 uM [1] was 89.6%, the viability at 10 uM [1] was 23.4% and the “Toxicity at 30 mg/kg” value [2] was 7 days, 4/4 deaths.

With `O=c1c2c(Cl)cc(Cl)c(O)c2ncn1N1CCCCC1` the viability at 1 uM [1] was 87.9%, the viability at 10 uM [1] was 72.7% and the “Toxicity at 30 mg/kg” value [2] was 10 days, none. It also gave a viability at 4 days, 1 uM [4] of 98% and a viability at 4 days, 10 uM [4] of 51%.

In the case of `CCn1cnc2c(O)c(Cl)cc(Cl)c2c1=O`, the viability at 1 uM [1] is reported as 104%, the viability at 10 uM [1] is reported as 95.9% and the viability at 4 days, 1 uM [4] is reported as 93%. The viability at 4 days, 10 uM [4] was 58%.

For `O=c1c2c(Cl)cc(I)c(O)c2ncn1CC1CC1`, the viability at 1 uM [1] was 97.9%, the viability at 10 uM [1] was 82.3% and the “Toxicity at 10 mg/kg” value ([2]; 10 mg/kg) was “At 10 mg/kg: 10 days, none”.
